For six compounds, melting point and pest or weed control results are on record in patent publication US6784137B2, “6-aryl-4-aminopicolinates and their use as herbicides” (Dow AgroSciences LLC, priority 2001, dated 2004).

The structures appear in SMILES notation.

System in one data set: not given
Assay: not given
Details: not given
Usually melting point stands for the temperature, or range, at which the solid turns liquid. Compound `COC(=O)c1nc(-c2ccc3ccccc3c2)cc(N)c1Cl` [Compound 47, Methyl 4-amino-3-chloro-6-(2-naphthyl)pyridine-2-carboxylate] had a melting point of 108 to 109 °C.

In the case of `Nc1cc(-c2cc3ccccc3o2)nc(C(=O)O)c1Cl` [Compound 219, 4-Amino-6-(2-benzofuranyl)-3-chloropyridine-2-carboxylic acid], the melting point is 151 °C.

As for `COC(=O)c1nc(-c2ccc3c(c2)CCO3)c(F)c(N)c1Cl` [Compound 85, Methyl 4-amino-3-chloro-5-fluoro-6-(2,3-dihydro-5-benzofuranyl)pyridine-2-carboxylate], the melting point was 120 °C.

For the compound `COC(=O)c1nc(-c2ccc(C(F)(F)F)cc2)c(Cl)c(N)c1Cl` [Compound 44, Methyl 4-amino-3,5-dichloro-6-[4-(trifluoromethyl)phenyl]pyridine-2-carboxylate], the melting point was in the range of 110 to 111 °C.

On to `COC(=O)c1nc(-c2ccc(Cl)cc2Cl)c(F)c(NC(C)=O)c1Cl` [Compound 49, Methyl 4-acetamido-3-chloro-5-fluoro-6-(2,4-dichlorophenyl)pyridine-2-carboxylate], for which the melting point lay within 178 to 179 °C.

Turning to `Nc1cc(-c2cc3ccccc3s2)nc(C(=O)O)c1Cl` [Compound 224, 4-Amino-3-chloro-6-(2-benzothienyl)pyridine-2-carboxylic acid], the melting point turned out to be 176 °C.

The next data set concerns Barnyardgrass (Echinochloa crus-galli). Put plainly: Postemergence herbicidal activity, greenhouse spray. The data set is classed as in vivo. The following applies: Echinochloa crus-galli, post-emergence, 336 h, Table 1; rate 125 ppm; visual score after 2 weeks; read-out: Post-emergent % control ECHCG. How it is done:
(§1) When required to ensure good germination and healthy plants, a fungicide treatment and/or other chemical or physical treatment was applied. The plants were grown for 7-21 days in a greenhouse with an approximate 15 hr photoperiod which was maintained at about 23-29° C. during the day and 22-28° C. during the night. Nutrients and water were added on a regular basis and supplemental lighting was provided with overhead metal halide 1000-Watt lamps as necessary. The plants were employed for testing when they reached the first or second true leaf stage. A weighed amount, determined by the highest rate to be tested, of each test compound was placed in a 20 mL glass vial and was dissolved in 4 mL of a 97:3 v/v (volume/volume) mixture of acetone and dimethyl sulfoxide (DMSO) to obtain concentrated stock solutions. […] The concentrated stock solutions obtained were diluted with an aqueous mixture containing acetone, water, isopropyl alcohol, DMSO, At plus 411 F crop oil concentrate, and Triton X-155 surfactant in a 48.5:39:10:1.5:1.0:0.02 v/v ratio to obtain spray solutions of known concentration. The solutions containing the highest concentration to be tested were prepared by diluting 2 mL aliquots of the stock solution with 13 mL of the mixture and lower concentrations were prepared by serial dilution of the stock solution. Approximately 1.5 mL aliquots of each solution of known concentration were sprayed evenly onto each of the test plant pots using a DeVilbiss atomizer driven by compressed air pressure of 2 to 4 psi (140 to 280 kiloPascals) to obtain thorough coverage of each plant. Control plants were sprayed in the same manner with the aqueous mixture. […] The treated plants and control plants were placed in a greenhouse as described above and watered by sub-irrigation to prevent wash-off of the test compounds.
`COC(=O)c1nc(-c2ccc(Cl)cc2Cl)c(F)c(NC(C)=O)c1Cl` [Compound 49, Methyl 4-acetamido-3-chloro-5-fluoro-6-(2,4-dichlorophenyl)pyridine-2-carboxylate]: the pest or weed control at 125 ppm was 10%.

As for `Nc1cc(-c2cc3ccccc3s2)nc(C(=O)O)c1Cl` [Compound 224, 4-Amino-3-chloro-6-(2-benzothienyl)pyridine-2-carboxylic acid], the pest or weed control at 125 ppm is 85%.

Staying with this data set, now noted: Echinochloa crus-galli, post-emergence, 336 h, Table 1; rate 250 ppm; visual score after 2 weeks; read-out: Post-emergent % control ECHCG.
Consider `Nc1cc(-c2cc3ccccc3o2)nc(C(=O)O)c1Cl` [Compound 219, 4-Amino-6-(2-benzofuranyl)-3-chloropyridine-2-carboxylic acid], for which the pest or weed control at 250 ppm was found to be 80%.

Turning to `COC(=O)c1nc(-c2ccc3c(c2)CCO3)c(F)c(N)c1Cl` [Compound 85, Methyl 4-amino-3-chloro-5-fluoro-6-(2,3-dihydro-5-benzofuranyl)pyridine-2-carboxylate], the pest or weed control at 250 ppm was 99%.

Regarding `COC(=O)c1nc(-c2ccc(C(F)(F)F)cc2)c(Cl)c(N)c1Cl` [Compound 44, Methyl 4-amino-3,5-dichloro-6-[4-(trifluoromethyl)phenyl]pyridine-2-carboxylate], the pest or weed control at 250 ppm was 30%.

The same data set, now with this note: Echinochloa crus-galli, post-emergence, 336 h, Table 1; rate 500 ppm; visual score after 2 weeks; read-out: Post-emergent % control ECHCG.
As to `COC(=O)c1nc(-c2ccc3ccccc3c2)cc(N)c1Cl` [Compound 47, Methyl 4-amino-3-chloro-6-(2-naphthyl)pyridine-2-carboxylate], the pest or weed control at 500 ppm was found to be 80%.

Another data set has as its system Yellow nutsedge (Cyperus esculentus). Described as above. The settings on record: Cyperus, post-emergence, 336 h, Table 1; rate 125 ppm; visual score after 2 weeks; read-out: Post-emergent % control CYPES. The data set is classed as in vivo. How it is done:
as §1
For the compound `COC(=O)c1nc(-c2ccc(Cl)cc2Cl)c(F)c(NC(C)=O)c1Cl` [Compound 49, Methyl 4-acetamido-3-chloro-5-fluoro-6-(2,4-dichlorophenyl)pyridine-2-carboxylate], the pest or weed control at 125 ppm was determined as 30%.

As to `Nc1cc(-c2cc3ccccc3s2)nc(C(=O)O)c1Cl` [Compound 224, 4-Amino-3-chloro-6-(2-benzothienyl)pyridine-2-carboxylic acid], the pest or weed control at 125 ppm was 30%.

Staying with this data set, now noted: Cyperus, post-emergence, 336 h, Table 1; rate 250 ppm; visual score after 2 weeks; read-out: Post-emergent % control CYPES.
Take `Nc1cc(-c2cc3ccccc3o2)nc(C(=O)O)c1Cl` [Compound 219, 4-Amino-6-(2-benzofuranyl)-3-chloropyridine-2-carboxylic acid]: the pest or weed control at 250 ppm was 0%.

On to `COC(=O)c1nc(-c2ccc3c(c2)CCO3)c(F)c(N)c1Cl` [Compound 85, Methyl 4-amino-3-chloro-5-fluoro-6-(2,3-dihydro-5-benzofuranyl)pyridine-2-carboxylate], for which the pest or weed control at 250 ppm is 70%.

With `COC(=O)c1nc(-c2ccc(C(F)(F)F)cc2)c(Cl)c(N)c1Cl` [Compound 44, Methyl 4-amino-3,5-dichloro-6-[4-(trifluoromethyl)phenyl]pyridine-2-carboxylate], the pest or weed control at 250 ppm turned out to be 70%.

The same data set, now with this note: Cyperus, post-emergence, 336 h, Table 1; rate 500 ppm; visual score after 2 weeks; read-out: Post-emergent % control CYPES.
On to `COC(=O)c1nc(-c2ccc3ccccc3c2)cc(N)c1Cl` [Compound 47, Methyl 4-amino-3-chloro-6-(2-naphthyl)pyridine-2-carboxylate], for which the pest or weed control at 500 ppm is 0%.

For another data set, the system named is Cocklebur (Xanthium strumarium). The data set is described as above. Format: in vivo. The following applies: Xanthium strumarium, post-emergence, 336 h; Table 1; rate 125 ppm; visual score after 2 weeks; read-out: Post-emergent % control XANST. How it is done:
as §1
On to `COC(=O)c1nc(-c2ccc(Cl)cc2Cl)c(F)c(NC(C)=O)c1Cl` [Compound 49, Methyl 4-acetamido-3-chloro-5-fluoro-6-(2,4-dichlorophenyl)pyridine-2-carboxylate], for which the pest or weed control at 125 ppm was 100%.

With `Nc1cc(-c2cc3ccccc3s2)nc(C(=O)O)c1Cl` [Compound 224, 4-Amino-3-chloro-6-(2-benzothienyl)pyridine-2-carboxylic acid], the pest or weed control at 125 ppm was found to be 100%.

Staying with this data set, now noted: Xanthium strumarium, post-emergence, 336 h; Table 1; rate 250 ppm; visual score after 2 weeks; read-out: Post-emergent % control XANST.
With `Nc1cc(-c2cc3ccccc3o2)nc(C(=O)O)c1Cl` [Compound 219, 4-Amino-6-(2-benzofuranyl)-3-chloropyridine-2-carboxylic acid], the pest or weed control at 250 ppm turned out to be 100%.

For the compound `COC(=O)c1nc(-c2ccc3c(c2)CCO3)c(F)c(N)c1Cl` [Compound 85, Methyl 4-amino-3-chloro-5-fluoro-6-(2,3-dihydro-5-benzofuranyl)pyridine-2-carboxylate], the pest or weed control at 250 ppm stood at 100%.

Take `COC(=O)c1nc(-c2ccc(C(F)(F)F)cc2)c(Cl)c(N)c1Cl` [Compound 44, Methyl 4-amino-3,5-dichloro-6-[4-(trifluoromethyl)phenyl]pyridine-2-carboxylate]: the pest or weed control at 250 ppm was determined as 100%.

The same data set, now with this note: Xanthium strumarium, post-emergence, 336 h; Table 1; rate 500 ppm; visual score after 2 weeks, 0 no injury, 100 complete kill; read-out: Post-emergent % control XANST.
Turning to `COC(=O)c1nc(-c2ccc3ccccc3c2)cc(N)c1Cl` [Compound 47, Methyl 4-amino-3-chloro-6-(2-naphthyl)pyridine-2-carboxylate], the pest or weed control at 500 ppm was determined as 90%.

In a further data set the test system is Lambsquarter (Chenopodium album). The description is as above. The data set is classed as in vivo. The settings on record: Chenopodium album, post-emergence, 336 h; Table 1; rate 125 ppm; visual score after 2 weeks; read-out: Post-emergent % control CHEAL. Here is the method:
as §1
With `COC(=O)c1nc(-c2ccc(Cl)cc2Cl)c(F)c(NC(C)=O)c1Cl` [Compound 49, Methyl 4-acetamido-3-chloro-5-fluoro-6-(2,4-dichlorophenyl)pyridine-2-carboxylate], the pest or weed control at 125 ppm was 80%.

`Nc1cc(-c2cc3ccccc3s2)nc(C(=O)O)c1Cl` [Compound 224, 4-Amino-3-chloro-6-(2-benzothienyl)pyridine-2-carboxylic acid]: the pest or weed control at 125 ppm came to 100%.

The same data set, now with this note: Chenopodium album, post-emergence, 336 h; Table 1; rate 250 ppm; visual score after 2 weeks; read-out: Post-emergent % control CHEAL.
For the compound `Nc1cc(-c2cc3ccccc3o2)nc(C(=O)O)c1Cl` [Compound 219, 4-Amino-6-(2-benzofuranyl)-3-chloropyridine-2-carboxylic acid], the pest or weed control at 250 ppm came to 100%.

In the case of `COC(=O)c1nc(-c2ccc3c(c2)CCO3)c(F)c(N)c1Cl` [Compound 85, Methyl 4-amino-3-chloro-5-fluoro-6-(2,3-dihydro-5-benzofuranyl)pyridine-2-carboxylate], the pest or weed control at 250 ppm came to 100%.

Take `COC(=O)c1nc(-c2ccc(C(F)(F)F)cc2)c(Cl)c(N)c1Cl` [Compound 44, Methyl 4-amino-3,5-dichloro-6-[4-(trifluoromethyl)phenyl]pyridine-2-carboxylate]: the pest or weed control at 250 ppm came to 80%.

The data set is the same for the next values; noted with them: Chenopodium album, post-emergence, 336 h; Table 1; rate 500 ppm; visual score after 2 weeks; read-out: Post-emergent % control CHEAL.
As to `COC(=O)c1nc(-c2ccc3ccccc3c2)cc(N)c1Cl` [Compound 47, Methyl 4-amino-3-chloro-6-(2-naphthyl)pyridine-2-carboxylate], the pest or weed control at 500 ppm is 90%.
